{"source": "ChEMBL document CHEMBL5241058", "about": "“Pyrazole-based analogs as potential antibacterial agents against methicillin-resistance staphylococcus aureus (MRSA) and its SAR elucidation” (Eur J Med Chem, 2021)", "key": {"Staphylococcus aureus [1]": {"system": "Staphylococcus aureus", "assay": "Antimicrobial activity against Staphylococcus aureus LysRs assessed as bacterial growth inhibition by microdilution method", "type": "functional, organism-based"}, "Staphylococcus aureus [2]": {"system": "Staphylococcus aureus", "assay": "Antimicrobial activity against Methicillin-resistant Staphylococcus aureus ATCC 33592 assessed as bacterial growth inhibition incubated for 20 to 24 hrs by microdilution method", "type": "functional", "details": "time 20-24 hrs"}, "Staphylococcus aureus [3]": {"system": "Staphylococcus aureus", "assay": "Antimicrobial activity against Methicillin-resistant Staphylococcus aureus ATCC 33591 assessed as bacterial growth inhibition incubated for 20 to 24 hrs by microdilution method", "type": "functional", "details": "time 20-24 hrs"}, "Staphylococcus aureus [4]": {"system": "Staphylococcus aureus", "assay": "Antimicrobial activity against Methicillin-resistant Staphylococcus aureus assessed as bacterial growth inhibition by disc diffusion method", "type": "functional"}, "Staphylococcus aureus [5]": {"system": "Staphylococcus aureus", "assay": "Antimicrobial activity against Methicillin-resistant Staphylococcus aureus assessed as bacterial growth inhibition by agar well diffusion method", "type": "functional"}, "Staphylococcus aureus [6]": {"system": "Staphylococcus aureus", "assay": "Antimicrobial activity against Methicillin-resistant Staphylococcus aureus assessed as bacterial growth inhibition by microtiter dilution plate method", "type": "functional"}, "Staphylococcus aureus [7]": {"system": "Staphylococcus aureus", "assay": "Antimicrobial activity against vancomycin intermediate-resistant Staphylococcus aureus assessed as bacterial growth inhibition incubated for 24 hrs by microdilution method", "type": "functional"}, "Staphylococcus aureus [8]": {"system": "Staphylococcus aureus", "assay": "Antimicrobial activity against Methicillin-resistant Staphylococcus aureus MW2 assessed as bacterial growth inhibition incubated for 18 hrs by microdilution method", "type": "functional"}, "Staphylococcus aureus [9]": {"system": "Staphylococcus aureus", "assay": "Antimicrobial activity against Methicillin-resistant Staphylococcus aureus ATCC 33592 assessed as bacterial growth inhibition incubated for 20 to 24 hrs by microdilution assay", "type": "functional", "details": "time 20-24 hrs"}, "Staphylococcus aureus [10]": {"system": "Staphylococcus aureus", "assay": "Antimicrobial activity against Methicillin-resistant Staphylococcus aureus ATCC 33591 assessed as bacterial growth inhibition", "type": "functional"}, "Staphylococcus aureus [11]": {"system": "Staphylococcus aureus", "assay": "Antimicrobial activity against Methicillin-resistant Staphylococcus aureus ATCC 700699 assessed as bacterial growth inhibition", "type": "functional"}, "Staphylococcus aureus [12]": {"system": "Staphylococcus aureus", "assay": "Antimicrobial activity against Methicillin-resistant Staphylococcus aureus BAA-2312 assessed as bacterial growth inhibition", "type": "functional"}, "Staphylococcus aureus [13]": {"system": "Staphylococcus aureus", "assay": "Antimicrobial activity against Methicillin-resistant Staphylococcus aureus ATCC 33592 assessed as bacterial growth inhibition", "type": "functional"}, "Staphylococcus aureus [14]": {"system": "Staphylococcus aureus", "assay": "Antimicrobial activity against Methicillin-sensitive Staphylococcus aureus ATCC 25923 assessed as bacterial growth inhibition", "type": "functional"}, "Staphylococcus aureus [15]": {"system": "Staphylococcus aureus", "assay": "Antimicrobial activity against Methicillin-resistant Staphylococcus aureus assessed as bacterial growth inhibition incubated for 24 hrs by agar disc diffusion method", "type": "functional"}, "Staphylococcus aureus [16]": {"system": "Staphylococcus aureus", "assay": "Antimicrobial activity against Methicillin-resistant Staphylococcus aureus assessed as bacterial growth inhibition incubated for 24 hrs by microdilution method", "type": "functional"}, "Staphylococcus aureus [17]": {"system": "Staphylococcus aureus", "assay": "Antimicrobial activity against Methicillin-resistant Staphylococcus aureus ATCC 700699 assessed as bacterial growth inhibition incubated for 20 to 24 hrs by microdilution method", "type": "functional", "details": "time 20-24 hrs"}}, "note": "pIC50: −log10 of the molar value."}
{"smiles": "CCc1c2[nH]c(=O)[nH]c(=O)c2nn1CC1CCC1", "values": [{"measurement": "pIC50", "setting": "Staphylococcus aureus [1]", "result": 4.66}]}
{"smiles": "O=C(O)c1ccc(-n2cc(/C=N/Nc3cccc(Cl)c3F)c(-c3cccc(F)c3)n2)cc1", "values": [{"measurement": "MIC", "setting": "Staphylococcus aureus [2]", "result": 0.78, "unit": "µg/mL"}]}
{"smiles": "O=C(O)c1ccc(-n2cc(/C=N/Nc3ccc(Cl)cc3Cl)c(-c3cccc(F)c3)n2)cc1", "values": [{"measurement": "MIC", "setting": "Staphylococcus aureus [3]", "result": 0.39, "unit": "µg/mL"}]}
{"smiles": "COc1ccc(Nc2n[nH]c(/N=C\\c3ccccc3)c2C(=O)Nc2ccc(C)cc2)cc1", "values": [{"measurement": "MIC", "setting": "Staphylococcus aureus [4]", "result": 15.6, "unit": "µg/mL"}]}
{"smiles": "c1ccc(-c2cnn3c4c(cnc23)CCCCCC4)cc1", "values": [{"measurement": "inhibition zone (IZ)", "setting": "Staphylococcus aureus [5]", "result": 50, "unit": "mm"}, {"measurement": "MIC", "setting": "Staphylococcus aureus [6]", "result": 9, "unit": "µg/mL"}]}
{"smiles": "CCCc1c(-c2ccc(O)cc2)nn(-c2ccc(O)cc2)c1-c1ccc(O)cc1", "note": "[PROPYLPYRAZOLETRIOL]", "values": [{"measurement": "MIC", "setting": "Staphylococcus aureus [7]", "result": 8, "unit": "µg/mL"}, {"measurement": "MIC", "setting": "Staphylococcus aureus [8]", "result": 8, "unit": "µg/mL"}]}
{"smiles": "O=C(O)c1ccc(-n2cc(/C=N/N(c3ccccc3)c3ccccc3)c(-c3cc4ccccc4oc3=O)n2)cc1", "values": [{"measurement": "MIC", "setting": "Staphylococcus aureus [9]", "result": 3.12, "unit": "µg/mL"}]}
{"smiles": "O=C(O)c1ccc(-n2cc(/C=N\\N(c3ccccc3)c3ccccc3)c(-c3cc4cc(F)ccc4oc3=O)n2)cc1", "values": [{"measurement": "MIC", "setting": "Staphylococcus aureus [10]", "result": 3.12, "unit": "µg/mL"}, {"measurement": "MIC", "setting": "Staphylococcus aureus [11]", "result": 3.12, "unit": "µg/mL"}, {"measurement": "MIC", "setting": "Staphylococcus aureus [12]", "result": 3.12, "unit": "µg/mL"}, {"measurement": "MIC", "setting": "Staphylococcus aureus [13]", "result": 3.12, "unit": "µg/mL"}, {"measurement": "MIC", "setting": "Staphylococcus aureus [14]", "result": 3.12, "unit": "µg/mL"}]}
{"smiles": "CCOC(=O)c1nn(-c2ccccc2)cc1C(=O)c1ccc(S(=O)(=O)c2ccccc2)cc1", "values": [{"measurement": "inhibition zone (IZ)", "setting": "Staphylococcus aureus [15]", "result": 14, "unit": "mm"}, {"measurement": "MIC", "setting": "Staphylococcus aureus [16]", "result": 25, "unit": "µg/mL"}]}
{"smiles": "O=C(O)c1ccc(-n2cc(/C=N/Nc3ccc([N+](=O)[O-])cc3)c(-c3cccc(F)c3)n2)cc1", "values": [{"measurement": "MIC", "setting": "Staphylococcus aureus [17]", "result": 0.78, "unit": "µg/mL"}]}
